US20180344639A1, “HYPOXIA-TARGETED POLYMERIC MICELLES FOR CANCER THERAPY AND IMAGING” (priority 2012, published 2018)

What was measured:
[1] = Encapsulation efficiency of drug in PMC of Example I by dialysis and UV/Vis absorbance; type: physicochemical; conditions: PMC from Example I; dialysis 10,000 MWCO; tris buffer (pH 7.4) given for Drug A only
Experimental: (§1) The polymer is dissolved in deionized water or an aqueous buffer at a concentration of 0.010 g/mL. Drugs A is dissolved in DMSO at a concentration of 5 μg/μl. Drug A is added dropwise to the polymer solution with constant stirring at room temperature. The drugs are added over the course of 60 minutes resulting in a 2-5 fold molar excess over polymer. The solution is centrifuged to remove any precipitates and transferred to dialysis tubing with 10,000 MWCO. The solution is dialyzed against an aqueous buffer (50× volume) for 30 minutes.
(§2) The absorbance of the polymer-drug solution and dialysis buffer are recorded and compared to respective pre-dialysis samples by a UV/Vis spectrophotometer (polymer absorbance=280 nm; Drug A absorbance=450 nm). The encapsulation efficiency is calculated from the change in absorbance of the drug after this initial dialysis. The polymer-drug solution is dialyzed further with fresh buffer (50× volume) with multiple readings over the course of 72 hours with 4 buffer changes. The rate at which the drug is released from the polymeric micelle is calculated by the change in absorbance of the drug over time from the polymer-drug solution and dialysis buffer.
(§3) Encapsulation of Drug B is carried out by the same dialysis procedure as described in Example III for Drug A. Drug B is dissolved in DMSO to a stock solution of 2.5 mg/ml. […]

[2] = Release of drug from the polymeric micelle during dialysis, by change in absorbance; type: physicochemical; conditions: PMC from Example I; 24 hours dialysis; tris buffer (pH 7.4) given for Drug A only
Experimental: as §1, §2, §3

- Encapsulation efficiency [1]: greater than 80%
- drug released [2]: 50%
Structure (SMILES): CCCNC(=O)c1c(C)[nH]c(/C=C2\C(=O)Nc3ccc(F)cc32)c1C [Drug A]
